Measured values reported in patent EP0973766B1, “QUINOXALINEDIONES” (Pfizer Limited, priority 1997, dated 1998).

Assay: Lipophilicity by the octanol/water partition method

logD: -1.7
SMILES: COCc1nnc(-c2ccc[n+]([O-])c2)n1-c1c(Cl)c(Cl)cc2[nH]c(=O)c(=O)[nH]c12 [Example 2, (-)-6,7-Dichloro-5-[3-methoxymethyl-5-(1-oxidopyridin-3-yl)-4H-1,2,4-triazol-4-yl]-2,3(1H,4H)-quinoxalinedione hydrate]
